These results are taken from patent US8952008B2, “Chemical compounds” (Pfizer Limited, priority 2012, dated 2015).

The Ki is a measure of affinity in units of concentration, obtained from inhibition or displacement.

GABRA1-GABRB3-GABRG2 chloride currents in HEK cells, sequence (P14867 28-456): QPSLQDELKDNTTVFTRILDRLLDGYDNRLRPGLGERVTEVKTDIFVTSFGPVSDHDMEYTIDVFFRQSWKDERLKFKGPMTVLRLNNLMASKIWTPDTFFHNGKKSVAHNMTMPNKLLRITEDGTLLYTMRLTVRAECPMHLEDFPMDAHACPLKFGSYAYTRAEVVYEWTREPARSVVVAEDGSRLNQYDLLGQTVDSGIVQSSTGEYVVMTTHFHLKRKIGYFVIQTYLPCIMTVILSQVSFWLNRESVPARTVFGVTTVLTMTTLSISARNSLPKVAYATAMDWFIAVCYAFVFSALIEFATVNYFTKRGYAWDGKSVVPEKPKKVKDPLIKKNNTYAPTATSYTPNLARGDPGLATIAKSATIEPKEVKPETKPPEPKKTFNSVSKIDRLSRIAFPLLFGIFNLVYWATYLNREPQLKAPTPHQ
GABRA1-GABRB3-GABRG2 chloride currents in HEK cells, sequence (P28472 26-473 partner): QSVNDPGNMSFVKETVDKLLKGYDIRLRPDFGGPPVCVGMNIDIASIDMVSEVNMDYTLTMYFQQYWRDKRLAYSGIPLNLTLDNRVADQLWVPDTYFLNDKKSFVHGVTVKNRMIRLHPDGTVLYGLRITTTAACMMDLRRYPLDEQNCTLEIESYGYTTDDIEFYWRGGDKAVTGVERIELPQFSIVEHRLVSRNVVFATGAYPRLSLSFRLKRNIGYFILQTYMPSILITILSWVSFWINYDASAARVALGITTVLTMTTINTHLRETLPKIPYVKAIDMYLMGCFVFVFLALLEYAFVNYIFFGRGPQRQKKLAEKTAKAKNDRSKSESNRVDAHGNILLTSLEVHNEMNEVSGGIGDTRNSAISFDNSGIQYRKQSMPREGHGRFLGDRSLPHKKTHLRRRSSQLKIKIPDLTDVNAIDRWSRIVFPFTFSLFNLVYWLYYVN
GABRA1-GABRB3-GABRG2 chloride currents in HEK cells, sequence (P18507 40-475): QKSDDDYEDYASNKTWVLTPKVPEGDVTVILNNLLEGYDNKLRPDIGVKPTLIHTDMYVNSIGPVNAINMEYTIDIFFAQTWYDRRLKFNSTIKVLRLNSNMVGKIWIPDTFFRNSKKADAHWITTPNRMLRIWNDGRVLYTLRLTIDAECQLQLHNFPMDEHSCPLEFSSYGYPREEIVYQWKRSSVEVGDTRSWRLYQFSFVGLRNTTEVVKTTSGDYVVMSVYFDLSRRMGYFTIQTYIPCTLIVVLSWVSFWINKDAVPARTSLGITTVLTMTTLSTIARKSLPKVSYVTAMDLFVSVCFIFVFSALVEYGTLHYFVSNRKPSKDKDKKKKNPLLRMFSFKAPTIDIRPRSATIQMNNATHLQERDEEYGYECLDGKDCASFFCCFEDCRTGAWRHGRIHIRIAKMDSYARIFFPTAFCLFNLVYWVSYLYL

The target of the first test is human recombinant GABA A receptor containing the alpha2, beta2, and gamma3 subunits (Homo sapiens, UniProt P47869+Q99928). Put plainly: Radioligand competition binding assay with [3H]Ro-15-1788 (Flumazenil).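 Also: membranes from HEK cells expressing the receptor, incubated with radioligand to equilibrium, filter-bound radioactivity counted, Ki reported as geometric mean of replicate runs.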
Conditions: not given
A general note: In a radioligand displacement assay an active substance lowers the binding of a labelled ligand.
Take `CCS(=O)(=O)c1ccc(-c2cc(-c3cnnc4c3ncn4C3CCC3)ccc2F)c(F)c1` [Example 26, 7-Cyclobutyl-4-(4′-(ethylsulfonyl)-2′,6-difluoro-[1,1′-biphenyl]-3-yl)-7H-imidazo[4,5-c]pyridazine]: the Ki is 147 nM.

As to `COc1cc(S(=O)(=O)C(C)C)ccc1-c1cc(-c2cnnc3c2ncn3C2CC2)ccc1F` [Example 23, 7-Cyclopropyl-4-(6-fluoro-4′-(isopropylsulfonyl)-2′-methoxy-[1,1′-biphenyl]-3-yl)-7H-imidazo[4,5-c]pyridazine], the Ki worked out at 40.5 nM.

Turning to `CCn1cnc2c(-c3ccc(F)c(-c4ccc(S(=O)(=O)C5CCC5)cc4OC)c3)cnnc21` [Example 6, 4-(4′-(Cyclobutylsulfonyl)-6-fluoro-2′-methoxy-[1,1-biphenyl]-3-yl)-7-ethyl-7H-imidazo[4,5-c]pyridazine], the Ki turned out to be 9.51 nM.

For `CCn1cnc2c(-c3ccc(OC)c(-c4ccc(S(=O)(=O)CC)cc4OC)c3)cnnc21` [Example 46, 7-Ethyl-4-(4′-(ethylsulfonyl)-2′,6-dimethoxy-[1,1′-biphenyl]-3-yl)-7H-imidazol[4,5-c]pyridazine], the Ki was 1750 nM.

As to `CC(C)S(=O)(=O)c1ccc(-c2cc(-c3cnnc4c3ncn4C3CC3)ccc2F)c(C#N)c1` [Example 18], the Ki was 296 nM.

For the molecule `CCS(=O)(=O)c1ccc(-c2cc(-c3cnnc4c3ncn4C3CCCC3)ccc2F)c(OC)c1` [Example 43, 7-Cyclopentyl-4-(4′-(ethylsulfonyl)-6-fluoro-2′-methoxy-[1,1′-biphenyl]-3-yl)-7H-imidazo[4,5-c]pyridazine], the Ki was determined as 118 nM.

For `CCn1cnc2c(-c3cccc(-c4ccc(S(C)(=O)=O)cc4)c3)cnnc21` [Example 16, 7-Ethyl-4-[4′-(methylsulfonyl)biphenyl-3-yl]-7H-imidazo[4,5-c]pyridazine], the Ki is 56 nM.

As for `CCS(=O)(=O)c1ccc(-c2cc(-c3cnnc4c3ncn4C(C)C)ccc2F)c(Cl)c1` [Example 39, 4-(2′-Chloro-4′-(ethylsulfonyl)-6-fluoro-[1,1′-biphenyl]-3-yl)-7-isopropyl-7H-imidazo[4,5-c]pyridazine], the Ki was 14.4 nM.

Turning to `CCS(=O)(=O)c1ccc(-c2cc(-c3cnnc4c3ncn4C3CC3)ccc2F)c(F)c1` [Example 22, 7-Cyclopropyl-4-(4′-(ethylsulfonyl)-2′,6-difluoro-[1,1′-biphenyl]-3-yl)-7H-imidazo[4,5-c]pyridazine], the Ki came out at 67.8 nM.

For the molecule `CC(C)n1cnc2c(-c3ccc(F)c(-c4ccc(S(=O)(=O)C(C)C)cc4F)c3)cnnc21` [Example 36, 4-(2′,6-Difluoro-4′-(isopropylsulfonyl)-[1,1′-biphenyl]-3-yl)-7-isopropyl-7H-imidazo[4,5-c]pyridazine], the Ki came to 87.4 nM.

As to `CCn1cnc2c(-c3ccc(OC)c(-c4ccc(S(=O)(=O)CC)cc4F)c3)cnnc21` [Example 44, 7-Ethyl-4-(4′-(ethylsulfonyl)-2′-fluoro-6-methoxy-[1,1′-biphenyl]-3-yl)-7H-imidazo[4,5-c]pyridazine], the Ki turned out to be 678 nM.

In the case of `CCS(=O)(=O)c1ccc(-c2cc(-c3cnnc4c3ncn4C3(C)CC3)ccc2F)cc1` [Example 27, 4-[4′-(Ethylsulfonyl)-6-fluorobiphenyl-3-yl]-7-(1-methylcyclopropyl)-7H-imidazo[4,5-c]pyridazine], the Ki was 34.8 nM.

As to `NS(=O)(=O)c1ccc(-c2cc(-c3cnnc4c3ncn4C3CC3)ccc2F)cc1` [Example 20, 5′-(7-Cyclopropyl-7H-imidazo[4,5-c]pyridazin-4-yl)-2′-fluoro-[1,1′-biphenyl]-4-sulfonamide], the Ki was 19 nM.

`CCCn1cnc2c(-c3ccc(F)c(-c4ccc(S(=O)(=O)CC)cc4)c3)cnnc21` [Example 30, 4-[4′-(Ethylsulfonyl)-6-fluorobiphenyl-3-yl]-7-propyl-7H-imidazo[4,5-d]pyridazine]: the Ki was determined as 120 nM.

Regarding `CCn1cnc2c(-c3ccc(F)c(-c4ccc(S(=O)(=O)C(C)C)cc4C#N)c3)cnnc21` [Example 5, 5′-(7-Ethyl-7H-imidazo[4,5-c]pyridazin-4-yl)-2′-fluoro-4-(isopropylsulfonyl)-[1,1′-biphenyl]-2-carbonitrile], the Ki turned out to be 108 nM.

Turning to `CCn1cnc2c(-c3cccc(-c4ccc5c(c4)CCS5(=O)=O)c3)cnnc21` [Example 17, 4-[3-(1,1-dioxido-2,3-dihydro-1-benzothiophen-5-yl)phenyl]-7-ethyl-7H-imidazo[4,5-c]pyridazine], the Ki was 102 nM.

In the case of `CCS(=O)(=O)c1ccc(-c2cc(-c3cnnc4c3ncn4C3CCC3)ccc2F)cc1` [Example 28, 7-Cyclobutyl-4-[4′-(ethylsulfonyl)-6-fluorobiphenyl-3-yl]-7H-imidazol[4,5-c]pyridazine], the Ki is 74.3 nM.

In the case of `CC(C)n1cnc2c(-c3ccc(F)c(-c4ccc(S(=O)(=O)C(C)C)cc4C#N)c3)cnnc21` [Example 35, 2′-Fluoro-5′-(7-isopropyl-7H-imidazo[4,5-c]pyridazin-4-yl)-4-(isopropylsulfonyl)-[1,1′-biphenyl]-2-carbonitrile], the Ki was 38.8 nM.

Turning to `CCS(=O)(=O)c1ccc(-c2cc(-c3cnnc4c3ncn4C(C)C)ccc2F)c(OC)c1` [Example 40, 4-(4′-(Ethylsulfonyl)-6-fluoro-2′-methoxy-[1,1′-biphenyl]-3-yl)-7-isopropyl-7H-imidazo[4,5-c]pyridazine], the Ki came out at 14 nM.

Staying with this test, now noted: read-out: GABA-α2 Ki; competition with [3H]Ro-15-1788; HEK cell membranes; geometric mean of at least two replicates.
With “7-Ethyl-4-[4-fluoro-3-(2-methyl-1,1-dioxido-2,3-di hydro-1,2-benzisothiazol-5-yl)phenyl]-7H-imidazo[4,5-d]pyridazine [Example 50]”, the Ki came out at 69.5 nM.

Another test addresses GABRA1-GABRB3-GABRG2 chloride currents in HEK cells (Homo sapiens (Human), UniProt P14867+P18507). The test is described as follows: QPatch electrophysiological recording, % enhancement of GABA current (α1 PAM). The format is cell-based. To be noted: approximately EC10 GABA, −60 mV, whole-cell patch clamp. The method, then:
(§1) Cell suspension containing HEK cells expressing GABRA2-GABRB2-GABRG2 was placed on the QPatch instrument in serum-free medium into the instrument's cell stirrer. The instrument washed the cells once using extracellular buffer and then dispensed them into the QPlate HT measurement plate at a concentration of 3-4-e6/ml. […] All recordings were made at room temperature (22-24° C.).
(§2) Current records were acquired at 1 KHz and filtered at 0.3 KHz using the Bessel filter. Series resistance compensation was set to 80% in the QPatch software.
(§3) All compounds were dissolved in dimethyl sulfoxide to make 30 mM or 10 mM stock solutions, which were then diluted to 1000 times the desired final concentration in dimethyl sulfoxide. These were diluted into extracellular solution to attain the final concentrations desired. […] This concentration of dimethyl sulfoxide was present in all samples.
(§4) Currents were recorded at −60 mV, using an approximately EC10 concentration of gamma-aminobutyric acid (GABA). This dose of gamma-aminobutyric acid was applied for 6 seconds and washed off using extracellular buffer as an unrecorded application using the pipetting system of the QPatch instrument. The same dose of gamma-aminobutyric acid was then applied for 9 seconds, then the test compound was co-applied with this dose of gamma-aminobutyric acid for 15 seconds, and washed off using the extracellular solution using the pipetting system of the QPatch instrument.
(§5) Compound effect (% enhancement of gamma-aminobutyric acid current) was calculated using the following formula: [((peak modulator current amplitude-leak)−(GABA current amplitude-leak))/(GABA current amplitude-leak)]*100, where ‘leak’ is leak current at −60 mV, ‘peak modulator current amplitude’ is the current elicited by co-application of gamma-aminobutyric acid and test compound, and ‘GABA current amplitude’ is the current elicited by application of gamma-aminobutyric acid alone.
The ability of the compounds of the formula (I) to modulate the GABA channels expressing the al subunit (or GABRA1) can also be measured using an assay analogous to that described above but replacing the GABRA2-GABRB2-GABRG2 gene construct with the GABRA1-GABRB3-GABRG2 gene construct. All other conditions remain the same including the same cell line and conditions for cell growth.
On the technique in general: In patch-clamp work, channel activity is measured electrically.
Turning to `CCn1cnc2c(-c3ccc(F)c(-c4ccc(S(=O)(=O)CC)cc4OC)c3)cnnc21` [Example 4, 7-Ethyl-4-[4′-(ethylsulfonyl)-6-fluoro-2′-methoxybiphenyl-3-yl]-7H-imidazo[4,5-c]pyridazine], the “α1 PAM (%)” value turned out to be 18.1%.

In the case of `CCn1cnc2c(-c3ccc(F)c(-c4ccc(S(=O)(=O)CC)cc4C(F)F)c3)cnnc21` [Example 14, 4-(2′-(Difluoromethyl)-4′-(ethylsulfonyl)-6-fluoro-[1,1′-biphenyl]-3-yl)-7-ethyl-7H-imidazo[4,5-c]pyridazine], the “α1 PAM (%)” value was 13.3%.

With `CCn1cnc2c(-c3ccc(O)c(-c4ccc(S(=O)(=O)CC)cc4OC)c3)cnnc21` [Example 48, 5-(7-Ethyl-7H-imidazo[4,5-c]pyridazin-4-yl)-4′-(ethylsulfonyl)-2′-methoxy-[1,1′-biphenyl]-2-ol], the “α1 PAM (%)” value is −5.53%.

A further test deals with GABRA2-GABRB2-GABRG2 chloride currents in HEK cells (Homo sapiens (Human), UniProt P18507+P47869). Put plainly: QPatch electrophysiological recording, % enhancement of GABA current (α2 PAM). To be noted: approximately EC10 GABA, −60 mV, whole-cell patch clamp. The format is cell-based. The method, then: Human Embryonic Kidney (HEK) cells were transfected with a GABRA2-GABRB2-GABRG2 construct using standard techniques.
GABRA2-GABRB2-GABRG2 chloride currents in HEK cells, sequence (P47869 29-451): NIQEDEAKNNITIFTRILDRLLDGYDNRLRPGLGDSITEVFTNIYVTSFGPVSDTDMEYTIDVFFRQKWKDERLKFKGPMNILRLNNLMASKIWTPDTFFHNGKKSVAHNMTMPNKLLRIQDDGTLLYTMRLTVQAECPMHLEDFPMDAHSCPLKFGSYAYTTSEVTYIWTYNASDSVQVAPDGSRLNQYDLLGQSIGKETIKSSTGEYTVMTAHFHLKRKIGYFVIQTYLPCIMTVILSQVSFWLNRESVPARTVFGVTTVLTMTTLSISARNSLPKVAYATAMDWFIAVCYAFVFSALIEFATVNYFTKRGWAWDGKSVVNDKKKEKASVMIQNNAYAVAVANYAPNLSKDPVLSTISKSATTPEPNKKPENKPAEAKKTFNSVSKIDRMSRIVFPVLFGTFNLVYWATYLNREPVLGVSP
GABRA2-GABRB2-GABRG2 chloride currents in HEK cells, sequence (P47870 26-512 partner): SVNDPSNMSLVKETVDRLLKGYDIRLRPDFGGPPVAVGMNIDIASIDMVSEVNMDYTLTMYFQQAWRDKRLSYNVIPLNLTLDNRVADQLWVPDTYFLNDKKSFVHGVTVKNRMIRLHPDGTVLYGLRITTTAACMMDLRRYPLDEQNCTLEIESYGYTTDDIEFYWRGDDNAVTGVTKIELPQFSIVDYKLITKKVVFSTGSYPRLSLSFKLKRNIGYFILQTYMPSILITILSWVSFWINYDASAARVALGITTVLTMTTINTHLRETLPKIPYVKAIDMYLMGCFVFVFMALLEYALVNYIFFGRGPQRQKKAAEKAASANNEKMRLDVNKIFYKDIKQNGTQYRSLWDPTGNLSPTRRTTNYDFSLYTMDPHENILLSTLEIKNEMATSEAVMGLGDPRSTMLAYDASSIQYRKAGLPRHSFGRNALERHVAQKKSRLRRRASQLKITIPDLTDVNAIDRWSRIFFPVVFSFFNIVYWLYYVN
GABRA2-GABRB2-GABRG2 chloride currents in HEK cells, sequence (P18507 40-475): as the sequence (P18507 40-475) above
For QPatch electrophysiology testing, cells were harvested from flasks by enzymatic dissociation and resuspended in serum-free medium. Cells were typically used for electrophysiological experiments within 24 to 72 hours after splitting.
as §1, §2, §3, §4, §5
As for `CCn1cnc2c(-c3ccc(F)c(-c4ccc(S(C)(=O)=O)cc4)c3)cnnc21` [Example 9, 7-Ethyl-4-[6-fluoro-4′-(methylsulfonyl)biphenyl-3-yl]-7H-imidazo[4,5-c]pyridazine], the “α2 PAM (%)” value came to 38.9%.

Regarding `CCn1cnc2c(-c3ccc(F)c(-c4ccc(S(=O)(=O)CC)cc4C(F)F)c3)cnnc21` [Example 14, 4-(2′-(Difluoromethyl)-4′-(ethylsulfonyl)-6-fluoro-[1,1′-biphenyl]-3-yl)-7-ethyl-7H-imidazo[4,5-c]pyridazine], the “α2 PAM (%)” value turned out to be 58.0%.

In the case of `CCn1cnc2c(-c3ccc(F)c(-c4ccc(S(=O)(=O)CC)cc4F)c3)cnnc21` [Example 15, 4-(4′-Ethanesulfonyl-6,2′-difluoro-biphenyl-3-yl)-7-ethyl-7H-imidazo[4,5-c]pyridazine], the “α2 PAM (%)” value is on record as 39.4%.

In the case of `CCn1cnc2c(-c3ccc(O)c(-c4ccc(S(=O)(=O)CC)cc4OC)c3)cnnc21` [Example 48, 5-(7-Ethyl-7H-imidazo[4,5-c]pyridazin-4-yl)-4′-(ethylsulfonyl)-2′-methoxy-[1,1′-biphenyl]-2-ol], the “α2 PAM (%)” value is given as 47.8%.

`CCn1cnc2c(-c3ccc(Cl)c(-c4ccc(S(=O)(=O)CC)cc4OC)c3)cnnc21` [Example 45, 4-(6-Chloro-4′-(ethylsulfonyl)-2′-methoxy-[1,1′-biphenyl]-3-yl)-7-ethyl-7H-imidazo[4,5-c]pyridazine]: the “α2 PAM (%)” value was determined as 61.1%.

As to `NS(=O)(=O)c1ccc(-c2cc(-c3cnnc4c3ncn4C3CC3)ccc2F)cc1` [Example 20, 5′-(7-Cyclopropyl-7H-imidazo[4,5-c]pyridazin-4-yl)-2′-fluoro-[1,1′-biphenyl]-4-sulfonamide], the “α2 PAM (%)” value turned out to be 36.3%.

Consider `CCn1cnc2c(-c3ccc(C#N)c(-c4ccc(S(=O)(=O)CC)cc4OC)c3)cnnc21` [Example 47, 5-(7-Ethyl-7H-imidazo[4,5-c]pyridazin-4-yl)-4′-(ethylsulfonyl)-2′-methoxy-[1,1′-biphenyl]-2-carbonitrile], for which the “α2 PAM (%)” value was 68.7%.

As to `CCn1cnc2c(-c3ccc(F)c(-c4ccc(S(=O)(=O)CC)cc4)c3)cnnc21` [Example 49, 7-Ethyl-4-[4′-(ethylsulfonyl)-6-fluorobiphenyl-3-yl]-7H-imidazo[4,5-d]pyridazine], the “α2 PAM (%)” value is 83.9%.
